In patent US20240165043A1, “COMPOSITIONS FOR THE TREATMENT OF A DISEASE OF THE URINARY TRACT AND TREATMENT OF A DISEASE INVOLVING THE INTRACELLULAR DELIVERY OF THE PARTICLE OR A MEDICAMENT CONTAINED THEREIN” (UCL BUSINESS LTD, priority 2018, published 2024):

How the values were obtained:
[1] = system: HBLAK-derived bladder organoids; experiment: Cell toxicity assay (LDH release); type: cell-based, human; conditions: CapFuran 2 mg/ml; equivalent free nitrofurantoin 200 mg/ml as printed; 60 minutes; N=6
Procedure: A colorimetric […] (LDH) assay kit (Thermo Scientific) was used to measure potential cell damage from CapFuran or nitrofurantoin. The procedure was carried out as directed by the manufacturer. HBLAK-derived bladder organoids were grown for 14 days then exposed to 1000 μl of culture media (control) or 1000 μl of culture media containing CapFuran 1 mg/ml; CapFuran 2 mg/ml; 100 μg/ml unencapsulated nitrofurantoin; 200 μg/ml Nitrofurantoin; 100 μl of 10× lysis buffer (maximum LDH control); or culture medium containing 10% ultra-pure water (to measure spontaneous LDH release). Experiments were carried out in triplicates. All organoids were subsequently incubated for 60 minutes at […] in 5% CO2. After incubation, 50 μl of medium from the apical chamber of each treated organoid was transferred to 3 wells of a flat-bottomed […] (Corning). […] To quantify the amount of LDH released, the 96 well plate was read using a colorimetric sphectrophotometer (Biochrom EZ Read 400) at an absorbance of 492 nm and 650 nm. Microsoft Excel was used to subtract the background reading from the LDH reading before calculating cytotoxicity in % using the following formula: % Cytotoxicity=Treatment associated LDH release−Spontaneous LDH release×100 Maximum LDH activity−Spontaneous LDH release

[2] = system: human bladder epithelial cells (HBLAK); experiment: Cellular uptake of cargo, two-dimensional monolayer; type: cell-based; conditions: free FITC at 2.5 mg/mL
Description: Commercially available human bladder epithelial cells (HBLAK, CelINTec), which are a spontaneously immortalised, non-transformed derivative of progenitor cells that retain the ability to differentiate, were supplied in frozen aliquots containing ˜5×10^5 cells at passage 2 and ˜0.5×10^5 at passage 25 respectively. The progenitor cells had been isolated from bladder trigone biopsies from male patients undergoing surgery for benign prostatic hyperplasia. HBLAK cells were used up until passage 40-50.
Thawed cells were seeded (˜300 cell clumps/cm^2) into pre-warmed and equilibrated low-calcium, high-bovine pituitary extract, primary epithelial medium (CnT-Prime, Cell N Tec) in 9 cm polystyrene dishes and incubated at 37° C. in a humidified incubator under 5% CO2. Culture medium was replaced after overnight incubation to remove residual dimethyl sulfoxide (DMSO). Antibiotics were not added to culture medium at any point due to adverse effects on cytodifferentiation, metabolism and morphology. […]
(§1) We performed epi-fluorescence microscopy on an Olympus CX-41 upright microscope, and confocal laser scanning microscopy on Leica SP5 and SP2 microscopes. […] For both still and live imaging, images were processed and analysed using Infinity Capture and Analyze V6.2.0, ImageJ 1.50 h 50 and the Leica Application Suite, Advanced Fluorescence 3.1.0 build 8587 Software.

[3] = system: human urothelial organoid model; experiment: Cellular uptake of cargo, three-dimensional bladder organoid; type: cell-based; conditions: two hours of treatment; free FITC at equivalent amount (14 ug/mL)
Procedure: The three-dimensional bladder organoid model has been described (Horsley et al, 2017, https://doi.org/10.1101/152033). Briefly, organoids were created as follows. In preparation for organotypic culture, previously frozen cells were thawed and expanded on 9 cm culture dishes as above. Once 70-80% confluent, the cells were washed briefly with calcium- and magnesium-free phosphate buffered saline (PBS, Sigma-Aldrich) and incubated at 37° C. in ˜3 ml of pre-warmed Accutase solution for 2-5 min. The dishes were lightly tapped and detached cells re-suspended in 7 ml of warm CnT-Prime. After centrifugation at 200×g for 5 min, the supernatant was removed and the pellet re-suspended in fresh CnT-Prime. This cell suspension was counted whilst allowing the cells to equilibrate for 3 min at room temperature. […]
The 3D culture inserts were incubated for 3-5 days until 100% confluent. Confluency was determined through the fluorescent staining of 1 insert and visualisation under epi-fluorescence microscopy (see section below). […]
as §1

Row | Compound | Cytotoxicity (LDH release), mean [1] | FITC staining of cells by free diffusion [2] | FITC penetration through cell layers [3]
1 | O=C1CN(/N=C/c2ccc([N+](=O)[O-])o2)C(=O)N1 [nitrofurantoin] | 6.60% |  | 
2 | fluorescein isothiocyanate [free FITC] |  | faint green staining to all cells | negligible penetration
